In one experiment the target is T1, β-catenin/Tcf4 (Homo sapiens, UniProt P35222).
T1 construct: Wild-type β-catenin (residues 138-781) were cloned into a pET-28b vector; 6×histidine (C); made in house; host or cells: E. coli BL21 DE3
T1 sequence (P35222 138-781): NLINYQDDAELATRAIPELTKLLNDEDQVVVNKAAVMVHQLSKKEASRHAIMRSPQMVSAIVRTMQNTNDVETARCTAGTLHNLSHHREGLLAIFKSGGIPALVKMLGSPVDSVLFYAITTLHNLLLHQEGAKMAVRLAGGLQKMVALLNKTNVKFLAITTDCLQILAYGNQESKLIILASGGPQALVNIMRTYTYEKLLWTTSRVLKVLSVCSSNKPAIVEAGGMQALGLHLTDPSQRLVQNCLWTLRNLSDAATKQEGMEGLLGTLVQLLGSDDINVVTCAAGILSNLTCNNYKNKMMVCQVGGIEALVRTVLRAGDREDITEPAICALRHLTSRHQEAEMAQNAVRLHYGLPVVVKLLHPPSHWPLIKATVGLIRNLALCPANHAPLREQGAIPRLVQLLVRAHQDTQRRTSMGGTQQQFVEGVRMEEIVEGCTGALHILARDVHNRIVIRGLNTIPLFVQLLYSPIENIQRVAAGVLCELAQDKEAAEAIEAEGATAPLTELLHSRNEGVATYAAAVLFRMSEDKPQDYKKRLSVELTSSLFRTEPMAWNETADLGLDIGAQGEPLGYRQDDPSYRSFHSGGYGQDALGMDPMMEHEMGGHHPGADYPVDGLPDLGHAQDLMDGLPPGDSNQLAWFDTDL
Briefly: FP selectivity assay, β-catenin/Tcf assay. The experiment is classed as binding. The settings on record: mean ± SD (n = 3). As for the experimental part:
FP Selectivity Assays. Experiments were performed in 96-well Microfluor 2 black plates on a Synergy 2 plate reader (Biotek). The polarization was measured at room temperature with an excitation wavelength at 485 nm and an emission wavelength at 535 nm. The FP experiments were performed in an assay buffer of 25 mM Hepes (pH 7.4), 100 mM NaCl, 0.01% Triton X-100, and 100 μg/ml γ-globulin. The final reaction volume was set to 100 μL. For the β-catenin/Tcf assay, 10 nM human β-catenin (residues 138-781) was incubated with 2.5 nM C-terminally fluorescein-labeled human Tcf4 (residues 7-51) for 30 min at 4° C., and then different concentrations of the compound in assay buffer were added. […] The negative control refers to 5 nM E-cadherin fluorescence tracer and 150 nM β-catenin in assay buffer with no inhibitor presenting. The positive control refers to 5 nM E-cadherin fluorescence tracer in assay buffer. […] The negative control refers to 5 nM APC-R3 fluorescence tracer and 2,000 nM β-catenin in assay buffer without the tested compound. The positive control refers to 5 nM APC-R3 fluorescence tracer in assay buffer. Each assay plate was covered black and gently mixed on an orbital shaker at 4° C. for 2.5 h to reach equilibrium before the polarization values were read. […] The IC50 values were determined by GraphPad Prism 5.0. […] The results were expressed as mean±standard deviation. […]

A further experiment has as its target T2, β-catenin/E-cadherin (Homo sapiens, UniProt P35222).
T2 construct: 150 nM human β-catenin (residues 138-781); 6×histidine (C); made in house; host or cells: E. coli BL21 DE3
T2 sequence (P35222 138-781): T1 sequence (P35222 138-781)
Briefly: FP selectivity assay, β-catenin/cadherin assay. The experiment is classed as binding. As for the experimental part:
FP Selectivity Assays. Experiments were performed in 96-well Microfluor 2 black plates on a Synergy 2 plate reader (Biotek). The polarization was measured at room temperature with an excitation wavelength at 485 nm and an emission wavelength at 535 nm. The FP experiments were performed in an assay buffer of 25 mM Hepes (pH 7.4), 100 mM NaCl, 0.01% Triton X-100, and 100 μg/ml γ-globulin. The final reaction volume was set to 100 μL. For the β-catenin/Tcf assay, 10 nM human β-catenin (residues 138-781) was incubated with 2.5 nM C-terminally fluorescein-labeled human Tcf4 (residues 7-51) for 30 min at 4° C., and then different concentrations of the compound in assay buffer were added. […] For the β-catenin/cadherin assay, 150 nM human β-catenin (residues 138-781) was incubated with 5 nM C-terminally fluorescent-labeled human E-cadherin (residues 819-873) in assay buffer for 30 min at 4° C. The negative control refers to 5 nM E-cadherin fluorescence tracer and 150 nM β-catenin in assay buffer with no inhibitor presenting. The positive control refers to 5 nM E-cadherin fluorescence tracer in assay buffer. […] The negative control refers to 5 nM APC-R3 fluorescence tracer and 2,000 nM β-catenin in assay buffer without the tested compound. The positive control refers to 5 nM APC-R3 fluorescence tracer in assay buffer. Each assay plate was covered black and gently mixed on an orbital shaker at 4° C. for 2.5 h to reach equilibrium before the polarization values were read. […] The IC50 values were determined by GraphPad Prism 5.0. […] The results were expressed as mean±standard deviation. The Tcf/cahderin selectivity ratio was calculated on the basis of the respective Ki value of the β-catenin/E-cadherin interaction over that of the β-catenin/Tcf4 interaction. The Tcf/APC selectivity ratio was calculated on the basis of the respective Ki value of the β-catenin/APC-R3 interaction over that of the β-catenin/Tcf4 interaction. […]

The structures appear in SMILES notation.

What is called Ki is the equilibrium dissociation constant of an inhibitor or competing ligand from its target. With `O=C(O)c1ccc2c(c1)c(CCc1ccc(Cl)cc1)c(CCc1nc3ccccc3s1)n2CCc1nn[nH]n1` [Compound 27, 1-(2-(2H-tetrazol-5-yl)ethyl)-2-(2-(benzo[d]thiazol-2-yl)ethyl)-3-(4-chlorophenethyl)-1H-indole-5-carboxylic acid], the Ki turned out to be 0.93 ± 0.51 µM on β-catenin/Tcf4 and 26 ± 8 µM on β-catenin/E-cadherin (FP selectivity assay, mean ± SD (n = 3)). In addition, on β-catenin/E-cadherin (FP selectivity assays), the “selectivity for β-catenin/Tcf over β-catenin/cadherin PPI” value was determined as 28 fold. Moreover, the “Selectivity Tcf/E-cadherin” value on β-catenin/E-cadherin (ratio of Ki β-catenin/E-cadherin over Ki β-catenin/Tcf4) worked out at 28.
